This note sets out measurements from patent publication US20130023504A1, “Modulation of Prostaglandin/Cyclooxygenase Metabolic Pathways” (HUNTER-FLEMING LIMITED, priority 2006, published 2013).

The subject of this assay is COX-2 mRNA. Kind of assay: COX-2 mRNA in human PBMC with and without TNF-α, quantitative RT-PCR. In kind it is cell-based. The method, then: Whole blood was collected from donors in EDTA-supplemented pouches at the Etablissement Français du Sang (Brest, France). The PBMC were isolated then from whole blood under sterile conditions within 36 hours after collection. Gradient density centrifugation was carried out on Ficoll (Eurobio). After washing in RPMI 1640 medium (Eurobio), cells were suspended in RPMI 1640 medium supplemented with 10% heat-inactivated fetal calf serum (Eurobio), 2 mM glutamine (D. Dutscher), 100 U of penicillin/ml (D. Dutscher), and 100 μg of streptomycin/ml (D. Dutscher). Monocytes were selected by plastic adherence for 1 h and approximately 10^7 cells were plated in 6-well tissue culture plates (3 mL medium per well). All incubations were performed in a humidified incubator at 37° C. and 5% CO2. Cells were recovered and dispersed in 2 ml fresh incubation medium supplemented with either 7β-hydroxyEPIA, 7β-hydroxy-DHEA, or 7α-hydroxy-DHEA (in 20 μL ethanol) in the presence or absence of 0.01 μg/mL TNF-α (Sigma-Aldrich). Control incubations contained 20 μl ethanol but no steroid. Supernatants were collected after 4 h and 24 hours incubations for measurement of their PG contents and cells were used for subsequent RNA isolation. A single step extraction method using the Trizol Reagent (Invitrogen, Cergy-Pontoise, France) provided total RNA.
cDNAs were synthesized from TURBO DNase I—treated RNA (Ambion, Huntingdon, UK) using the Superscript first strand synthesis system kit (Invitrogen). RT-PCR amplification mixtures (50 μL) contained 2.5× RealMaster Mix/20×SYBR solution (11.25 μL) (Eppendorf, Le Pecq, France) and 200 nM forward and reverse primers. Reactions were run on a RealPlex ep gradient S mastercycler (Eppendorf). The cycling conditions were 10 minutes at 95° C. and 45 cycles at 95° C., 55° C. and 68° C. for 15 seconds, 30 seconds and 30 seconds, respectively. Each assay included a standard curve of four serial dilution points of control cDNA. The HPRT1 housekeeping gene was used for quantification. All oligonucleotide primers (Table 2) were synthesized by Genecust/Distribio (Evry, France). The specificity of the amplified product was monitored by examining the melting curve of the product and confirmed by analysis on agarose gel electrophoresis.
All assays were carried out in triplicate and results were plotted as mean±S.E.M. One-way analysis of variance was performed followed by Duncan's multiple range tests in order to compare the differences between groups. Differences were considered statistically significant when p<0.05.

Molecules are shown by their SMILES. Marks after values point to notes of the source that are not given here.

For `CC12CCC3C(C1CCC2=O)[C@@H](O)C[C@H]1C[C@@H](O)CCC31C` (stereo partly drawn) [Compound 7β-OH-EPIA, 7β-hydroxy-EPIAndrosterone], the “COX-2 (mRNA), mRNA production relative to controls” value by setting is: (1 nM + TNF-α (10 ng/mL), 4 h) 7.39 ± 0.282^c; (1 nM + TNF-α (10 ng/mL), 24 h) 2.74 ± 0.555^c; (1 nM, 4 h, without TNF-α) 0.56 ± 0.072^b; (1 nM, 24 h, without TNF-α) 0.82 ± 0.27^b; (10 nM + TNF-α (10 ng/mL), 4 h) 2.75 ± 0.147^d; (10 nM + TNF-α (10 ng/mL), 24 h) 0.94 ± 0.194^d. Besides, the “COX-2 (mRNA), mRNA production relative to controls” value reads like this: (10 nM, 4 h, without TNF-α) 0.94 ± 0.048; (10 nM, 24 h, without TNF-α) 1.66 ± 0.408; (100 nM + TNF-α (10 ng/mL), 4 h) 5.76 ± 0.660; (100 nM + TNF-α (10 ng/mL), 24 h) 0.67 ± 0.132^d; (100 nM, 4 h, without TNF-α) 1.10 ± 0.108; (100 nM, 24 h, without TNF-α) 1.05 ± 0.214.
